Tested on: Mus musculus
Experiment: Sedative activity in Mus musculus Swiss albino (mouse) at 10 mg/kg, ip after 1 hr relative to control
Format: organism-based
Parameters: dose 10 mg/kg, route intraperitoneal
Settings: in vivo

SMILES	Activity [%]
NC(=O)c1c(N2CCN(CCO)CC2)nc2sc3cc(Cl)ccc3n2c1=O	30.37
CN(C)CCNc1nc2sc3cc(Cl)ccc3n2c(=O)c1C(N)=O	25.97
CCN1CCN(c2nc3sc4cc(Cl)ccc4n3c(=O)c2C(N)=O)CC1	22.66
NC(=O)c1c(N2CCCC2)nc2sc3cc(Cl)ccc3n2c1=O	38.27
CN1CCN(c2nc3sc4cc(Cl)ccc4n3c(=O)c2C(N)=O)CC1	32.92
NC(=O)c1c(N2CCCCC2)nc2sc3cc(Cl)ccc3n2c1=O	20.51
CN(C)CCNc1nc2sc3ccccc3n2c(=O)c1C(N)=O	36.25
NC(=O)c1c(N2CCOCC2)nc2sc3cc(Cl)ccc3n2c1=O	23.17
NC(=O)c1c(N2CCN(CCO)CC2)nc2sc3ccccc3n2c1=O	36.47
CN1CCN(c2nc3sc4ccccc4n3c(=O)c2C(N)=O)CC1	35.21
CCN1CCN(c2nc3sc4ccccc4n3c(=O)c2C(N)=O)CC1	26.43
NC(=O)c1c(N2CCCCC2)nc2sc3ccccc3n2c1=O	23.61
NC(=O)c1c(N2CCCC2)nc2sc3ccccc3n2c1=O	33.33
NC(=O)c1c(N2CCOCC2)nc2sc3ccccc3n2c1=O	24.32
CN(C)CCC(c1ccc(Cl)cc1)c1ccccn1.O=C(O)/C=C\C(=O)O (stereo not given) [CHLORPHENIRAMINE MALEATE]	69.01
